Values quoted from earlier work as cited in US20070092539A1 (priority 2003, published 2007).

Tests used:
rates with arthritis = details: experimental models on rates with arthritis, compared with other AINEs

For Cc1cnc(NC(=O)C2=C(O)c3ccccc3S(=O)(=O)N2C)s1 [meloxicam, 4-hydroxy-2-methyl-N-(5-methyl-2-thiazolyl)-2H-1,2-benzotiazine-3-carboxamide-1,1-dioxide], which solubility in methanol (methanol) is on record?
The solubility in methanol was “slightly soluble in methanol”.

What about the solubility in water (water) of the same molecule?
The solubility in water was “practically insoluble in water”.

And the “therapeutic margin (ulcerogenic vs anti-inflammatory doses)” value (rates with arthritis)?
The value was “superior therapeutic margin over the other AINEs”.
